Data as given in patent US20260199263A1, “Composition For The Modified Release Of Biological Polyamines, In Particular Spermidine” (GIULIANI S.P.A., priority 2022, published 2026).
In brackets after ≈: the same amount, converted by molar mass. Like-named read-outs stand apart in the source and are kept apart here.

Legend:
[1] = Solubility evaluation of PEA and SPE in water and ethanol with emulsifiers (tests A-H); format: physicochemical; conditions: for dissolution behaviour in test H: test H: 50 mg PEA + 50 mg SUC in 95% vol EtOH (about 2.5 g), then 500 mg water, then 50 mg SPE; for solubility: thermodynamic from solid
Description: First of all, an evaluation of the solubility of PEA and SPE in water and ethanol was carried out in the presence of two different concentrations of the two emulsifiers.
In both test C and test D, water was added initially up to 1 ml, then to 2 ml and finally to 5 ml.
In test H, 50 mg of PEA (crushed in the mortar because it was initially in the form of flakes) was placed in a 10 ml test tube and 50 mg of SUC were added.
300 mg of water were then added. At the time of addition, cloudiness was observed, but when heated it returned to being a clear solution again. Another 200 mg of water were then added, and the same behavior was observed. This time, it was necessary to heat for a longer time to obtain a clear solution again.
1) PEA was initially present in the form of flakes. It was reduced in size in the mortar before testing.
2) Emulsifiers were added to PEA before adding solvents.

[2] = data known from the literature, cited from earlier work

dissolution behaviour in test H ([1]; heated)	solubility ([1]; water, test A: 50 mg SPE, H2O q.s. to 1 g, read-out: solubility of SPE in water)	solubility ([1]; ethanol, organic solvent or mixture, test G: 32 mg PEA, EtOH q.s. to 2 g, read-out: solubility of PEA in ethanol)	solubility of PEA in water ([1]; test B: 50 mg PEA, H2O q.s. to 1 g)	solubility of PEA in water with emulsifier MGE ([1]; test C: PEA/MGE=10:1 w/w, H2O up to 5 ml)	solubility of PEA in water with emulsifier SUC ([1]; test D: PEA/SUC=10:1 w/w, H2O up to 5 ml)	solubility of PEA in water with emulsifier MGE ([1]; test E: PEA/MGE 1:1 w/w)	Structure (SMILES)	solubility in water [2]	solubility of PEA in water with emulsifier SUC ([1]; test F: PEA/SUC 1:1 w/w)	Hot solubility ([1]; tests C and D, PEA in water with emulsifier 10:1 w/w, heated)	solubility in ethanol [2]	solubility in water ([2]; in words)
dissolved immediately	50 mg/mL						NCCCCNCCCN [SPE, N-(3-aminopropyl)butane-1,4-diamine·3HCl]	50 mg/mL				
perfectly clear solution		16 mg/mL (≈ 53.4 mM)	insolubility	does not seem to improve the solubility	does not seem to improve the solubility	comparable to test C	CCCCCCCCCCCCCCCC(=O)NCCO [PEA, N-(2-hydroxyethyl)hexadecanamide]		appears to increase slightly, but not sufficiently	does not appear to have significant improvements	16 mg/mL (≈ 53.4 mM)	insoluble
